Data published in patent publication US9561201B2, “Therapeutic compounds” (Fibrotech Therapeutics Pty Ltd, priority 2006, dated 2017).

Legend:
[1] = test system: mesangial cell line (1097); test: TGF-β induced 3H-proline incorporation in cultured rat mesangial cells (Example 2); assay type: cell-based, Sprague-Dawley rats; conditions: renal mesangial cells, from 30 to 100 μM
Description: The anti-fibrotic effects of 3-methoxy-4-propargyloxybenzaldehyde (FT011) in a renal cell line were tested by measuring proline incorporation after transforming growth factor-β stimulation.
A well-characterized cloned mesangial cell line (1097) isolated from Sprague-Dawley rats was used between passages 30 and 40. Cells were cultured in Dulbecco's Modified Eagle's (DME) medium (Invitrogen, Grand Island, N.Y.) with heat-inactivated fetal bovine serum (FBS), 100 u/mL penicillin and 100 ug/mL streptomycin in a humidified 5% CO2 atmosphere at 37° C.
To compare the effects of tranilast and FT011 on collagen production in vitro, incorporation of tritiated proline was used. Mesangial cells were plated at low density into 24-well culture plates in DME/5% FBS and allowed to adhere overnight. The subconfluent cells were starved overnight in DME/0.5% FBS and […] L-ascorbic acid (Sigma-Aldrich). Tranilast or FT011 was then added to the wells, followed 4 hours later by L-[2,3,4,5-^3H]-proline, 0.5 μCi/well (Amersham) and TGF-β1, 5 ng/ml (R & D systems). Mesangial cells were harvested 48 hours post-stimulation, washed three times with ice cold PBS, and incubated with 10% trichloroacetic acid (TCA) for 30 minutes on ice, followed by a wash in ice cold 10% TCA. Cells were then solubilised in […] 1M NaOH. […]

cardiac fibroblasts = conditions: experimental model of diabetic cardiac disease [15]; cited from earlier work
[2] = Pilot study (toxicity assessment), 2 weeks oral gavage; assay type: in vivo, Sprague-Dawley (SD) rats; conditions: 2 weeks
Description: A total of twenty male Sprague-Dawley (SD) rats weighing 200-250 g were randomised to either FT011 (Fibrotech Therapeutics Pty Ltd, Melbourne, Australia) or Tranilast (Pharm Chemical, Shanghai Lansheng Corporation, China) at the dose of 50 mg, 100 mg, 200 mg and 400 mg/kg/day by gavage twice daily (n=2-3 per group). A control group of animals were gavaged with vehicle (1% carboxy methyl cellulose). The study was conducted for 2 weeks. Animals were bled daily at one, four, and eight hours after oral gavage to measure the plasma concentration. Serum was also collected to assess renal and liver function at the end of the study (plasma creatine and urate, ALT and bilirubin). Rats were individually housed in metabolic cages at the end of the study, habituated for 2 to 3 hours, and urine collected over 24 hours. Animals continued to have free access to tap water and standard laboratory chow during this period. The biochemistry tests performed at the department of pathology, St Vincent's hospital. Major organs including lung, heart, liver, spleen and kidney were harvested and immersed fix with 10% neutral buffered formalin and then embedded paraffin for subsequent light microscope examination.

[3] = patients with Gilbert's syndrome UGT1A1 variant [19]; cited from earlier work
rat mesangial cell line [4] = test: TGF-β stimulated 3H-proline incorporation in mesangial cells (Example 5); assay type: cell-based; conditions: for inhibition at 10 µM / inhibition at 30 µM / inhibition at 1 µM / inhibition at 3 µM: Rattus norvegicus, Mesangial cell, 5 ng/mL TGF-β1, 44 h, read-out: Mesangial Cell Assay TGF-β % reduction of TGF-β stimulation_proline inc.; for Collagen synthesis: inhibition ranked against tranilast (T) or FT11
Description: (§1) A well-characterized cloned rat mesangial cell line (gift of D Nikolic-Patterson) is cultured in DMEM with FBS, 100 U/mL penicillin, and 100 ug/mL streptomycin in a humidified 5% CO2 atmosphere at 37° C. Cells are plated into 24-well culture dishes in DMEM/10% FBS at low density and allowed to adhere overnight. Cells are used between passages 20 and 40. The subconfluent cells are starved overnight in DMEM/0.1% FBS containing 150 uM L-ascorbic acid, prior to 4 hours of pre-treatment with or without tranilast or the FT compounds, followed by the addition of 5 ng/mL rhTGF-β11 (R&D Systems) and 1 uCi/mL of L-(2,3,4,5-^3H)-proline. Control wells have the compounds but no TGF-β1 added. Cells are incubated for a further 44 hours during which time their appearance is visually monitored. The cells are then washed three times in ice-cold PBS, twice in ice cold 10% TCA and solubilized in 750 uL 1M NaOH for 45 minutes at 37° C. or overnight at 4° C. A 500 uL aliquot is neutralized with 500 uL 1M HCl and 10 mL scintillation fluid (Instagel Plus-Perkin-Elmer) added. Counts are performed on a beta counter.
To normalize the proline incorporation counts to take into account the proliferative effects of TGF-β1, a BioRad protein assay is performed on a 100-150 uL aliquot of the remaining solubilized cells. The sample is neutralized with an equal amount of 1M HCl prior to the assay. The BSA standards used to construct the standard curve have the same amount of 1M NaOH and 1M HCl added as is present in the samples for assay.
Proline incorporation is expressed as cpm/ug protein. In order to compare inter-assay results, the incorporation is expressed as percentage reduction of TGF stimulated proline incorporation, where TGF alone gives 0% reduction and the zero control gives 100% reduction.

[5] = test system: Neonatal rat cardiac fibroblasts (NCFs); test: NCF TGF-β collagen synthesis, 3H-proline incorporation (Example 6); assay type: cell-based
Description: Neonatal SD rat cardiac myocytes (NCMs) and fibroblasts (NCFs) were isolated from one-day-old pups with enzymatic digestion as described in detail previously. NCFs were seeded and maintained in high-glucose (25 mmol/L) Dulbecco's modified Eagle's medium (DMEM) (Invitrogen Mount Waverley, Vic, Australia) in the presence of 1% antibiotic/antimycotic (AB/AM) and 10% fetal bovine serum (FBS) (JRH biosciences, Kansas, USA). NCFs were used at passage 2 [31]. Purified NCMs were seeded (1000 cells/mm^2) in 6-well plates and then maintained in serum-free DMEM (Invitrogen, NY, USA) supplemented with insulin and transferrin as described previously (4). Bromodeoxyuridine was included for the first 3 days. 50 mmol/L KCl was added to the medium to prevent spontaneous contraction characteristic of the plated NCMs.
NCFs collagen synthesis assays were performed as described previously. Briefly, NCFs plated at a density of 50,000 cells/well in 12-well plate and incubated overnight. NCFs were then serum starved for 24 hours in high-glucose DMEM. […]
For collagen synthesis, 1 μCi of [^3H]-Proline was added to each well and incubated for further 48 hours before harvest. Cells were harvested by precipitation with 10% TCA on ice for 30 min, before solubilisation with 0.75 mL of 1 mol/L NaOH overnight at 4° C. The samples were then neutralized with 1 mol/L HCl and ^3H level were counted with 10 ml scintillation fluid on a beta-counter to determine [^3H]-proline incorporation.

rat mesangial cell line [6] = test: Effect on mesangial cell appearance (visual monitoring during proline assay); assay type: cell-based
Description: as §1
Compounds in Bold have Minimal Effect on Cell Appearance and Viability

Mesangial cells = test: Mesangial cell MTT assay with TGF-β; assay type: cell-based, rat; conditions: suppressed = reduced cell viability
Description: Mesangial cells are plated at 15000 cells per well into 96-well culture dishes in DMEM/10% FBS and allowed to adhere overnight. The subconfluent cells are starved overnight in DMEM/0.1% FBS, prior to 4 hours of pre-treatment with or without tranilast or the FT compounds. Following the addition of 5 ng/mL rhTGF-β1, the cells are incubated in a humidified 5% CO2 atmosphere at 37° C. for 44 hours. Control wells have the compounds but no TGF-β1 added. The culture medium is removed from each well and 100 uL MTT (0.5 mg/mL) in starve medium is added to each well. The plates are incubated for a further 4 hours at 37° C. The culture medium is then removed and replaced with 100 μL isopropanol and incubated at 37° C. for 20 to 30 minutes, until the blue formazan crystals have dissolved. The absorbance is measured at a wavelength of 570 nm with background subtraction of 690 nm.
Suppressed MTT Result Indicates Reduced Cell Viability

SMILES	Effect on mesangial cell appearance (rat mesangial cell line [6]; @ 30 μM)	Effect on mesangial cell appearance (rat mesangial cell line [6]; @ 100 μM)	melting point [°C]	inhibition at 10 µM (rat mesangial cell line [4]) [%]	inhibition at 30 µM (rat mesangial cell line [4]) [%]	Collagen synthesis (rat mesangial cell line [4])	NCF TGF-β Collagen Synthesis ([5]; @ 30 μM)	inhibition at 1 µM (rat mesangial cell line [4]) [%]	inhibition at 3 µM (rat mesangial cell line [4]) [%]	NCF TGF-β Collagen Synthesis ([5]; @ 10 μM)	Mesangial cell MTT Assay TGF-β (Mesangial cells; @ 30 μM)	other results
COc1ccc(/C=C/C(=O)Nc2ccccc2C(=O)O)cc1OC [Analogue 1, (E)-2-[[3-(3,4-Dimethoxyphenyl)-1-oxo-2-propenyl]amino]benzoic acid, reference compound]	–	–	–	–	–	–	–	–	–	–	–	proline incorporation after TGF-β stimulation [1]: significantly reduce; TGF-β-induced collagen synthesis in cardiac fibroblasts (cardiac fibroblasts): attenuate; ALT ([2]; 50 mg/kg/day gavage): 40.5 ± 4.5; Body weight ([2]; 50 mg/kg/day gavage): 315 ± 19 Gram; Plasma Creatinine ([2]; 50 mg/kg/day gavage): 43 ± 0.5 µmol/L; Plasma Urate ([2]; 50 mg/kg/day gavage): <0.09 mmol/L; ALT ([2]; 100 mg/kg/day gavage): 41 ± 1; Body weight ([2]; 100 mg/kg/day gavage): 298 ± 21 Gram; Plasma Creatinine ([2]; 100 mg/kg/day gavage): 43 ± 3.5 µmol/L; Plasma Urate ([2]; 100 mg/kg/day gavage): <0.09 mmol/L; ALT ([2]; 200 mg/kg/day gavage): 41 ± 4.6; Body weight ([2]; 200 mg/kg/day gavage): 293 ± 10 Gram; Plasma Creatinine ([2]; 200 mg/kg/day gavage): 45 ± 1 µmol/L; Plasma Urate ([2]; 200 mg/kg/day gavage): <0.09 mmol/L; ALT ([2]; 400 mg/kg/day gavage): 40 ± 5; Body weight ([2]; 400 mg/kg/day gavage): 314 ± 13 Gram; Plasma Creatinine ([2]; 400 mg/kg/day gavage): 49 ± 7.8 µmol/L; Plasma Urate ([2]; 400 mg/kg/day gavage): <0.09 mmol/L; drug-induced adverse effect [3]: hyperbilirubinemia
C#CCOc1cc(/C=C/C(=O)Nc2ccccc2C(=O)O)ccc1OC [Analogue 17, (E)-2-[[3-(4-Methoxy-3-propargyloxyphenyl)-1-oxo-2-propenyl]amino]benzoic acid]	–	–	–	20 to 50	~55	>=FT11	~70% at	–	–	–	–	–

Now from value to compound, other results behind:

Effect on mesangial cell appearance (rat mesangial cell line [6]; @ 30 μM)	Effect on mesangial cell appearance (rat mesangial cell line [6]; @ 100 μM)	melting point [°C]	SMILES	inhibition at 10 µM (rat mesangial cell line [4]) [%]	inhibition at 30 µM (rat mesangial cell line [4]) [%]	Collagen synthesis (rat mesangial cell line [4])	NCF TGF-β Collagen Synthesis ([5]; @ 30 μM)	inhibition at 1 µM (rat mesangial cell line [4]) [%]	inhibition at 3 µM (rat mesangial cell line [4]) [%]	NCF TGF-β Collagen Synthesis ([5]; @ 10 μM)	Mesangial cell MTT Assay TGF-β (Mesangial cells; @ 30 μM)	other results
sparse	lifting off	96 to 98	COc1cc(/C=C/C(=O)Nc2ccccc2C(=O)O)ccc1OC1CCCC1 [Analogue 26, (E)-2-{[3-(4-Cyclopentyloxy-3-methoxyphenyl)-1-oxo-2-propenyl]amino}benzoic acid]	85	93	>FT11	–	~13	30	28% at	–	–
–	Stressed @	211 to 217	COc1ccc(/C=C/C(=O)Nc2ccccc2C(=O)O)cc1OC1CCCC1 [Analogue 29, (E)-2-{[3-(3-Cyclopentyloxy-4-methoxyphenyl)-1-oxo-2-propenyl]amino}benzoic acid]	~90	–	>FT11	25% @ 30 μM	~8	40	10% @ 10 μM	Suppressed	Effect on mesangial cell appearance (rat mesangial cell line [6]; @ 10 μM): Sparse @
Looking bad	–	135 to 137	C#CCCCCOc1cc(/C=C/C(=O)Nc2ccccc2C(=O)O)ccc1OC [Analogue 34, (E)-2-[[3-(3-(Hex-5-ynyloxy)-4-methoxyphenyl)-1-oxo-2-propenyl]amino]benzoic acid]	~80	94	>FT11	–	–	–	–	Suppressed	–
Looking bad	–	166.5 to 167.5	C#CCCCOc1ccc(/C=C/C(=O)Nc2ccccc2C(=O)O)cc1OC [Analogue 35, (E)-2-[[3-(3-Methoxy-4-(pent-4-ynyloxy)phenyl)-1-oxo-2-propenyl]amino]benzoic acid]	50	60 to 100	=>FT11	–	–	~25	–	–	Mesangial cell MTT Assay TGF-β (Mesangial cells; @ 10 μM): Suppressed
